In article PMC10873626, “Acceleration of infectious disease drug discovery and development using a humanized model of drug metabolism” (Proceedings of the National Academy of Sciences of the …, 2024):
Like-named read-outs stand apart in the source and are kept apart here.

Assays:
[1] = microsomes
CYP = details: cited from earlier work
CYP3A4 = experiment: Hepatic CYP3A4 induction in 8HUM (Western blot); format: in vivo, mouse; details: efavirenz 20 and 40 mg/kg QD
Experimental: Microsomal samples were adjusted to 1 mg/mL in LDS sample buffer (Life Technologies) for loading of 10 µg total protein into each well and electrophoresis through 10% acrylamide gels for 1 h at 150 V, followed by transfer onto nitrocellulose membranes. Primary antibodies used for immunoblotting were anti-CYP3A4 (458234, BD Biosciences) and anti-GRP78 loading control (ab21685, Abcam). Pooled HLM material was the same as used in microsomal incubations. Loading control is not provided for Fig. 1B, as the comparison is between human and murine samples.
Mouse hepatic microsomes were prepared by homogenization of freshly-isolated liver in ice-cold SET buffer (0.25 M sucrose, 5 mM EDTA, and 20 mM Tris-HCL, pH 7.4) to make a 10% (w/v) homogenate solution (9 ml SET buffer/1 g liver) using a Polytron PT-MR-2100 homogenizer. Liver homogenates were centrifuged at 2000 rpm (Sorvall RTH-250 rotor) for 10 minutes at 4 °C and the supernatant then centrifuged at 12000 rpm (Sorvall SS-34 rotor) for 20 minutes at 4 °C. The resulting supernatant was centrifuged at 29130 rpm (Sorvall TFT-45.6 rotor) for 90 minutes at 4 °C and the microsomal pellets were resuspended in ice-cold SET buffer for storage at –70 °C.
Primary hepatocytes were freshly prepared from 8HUM using a modified version of Charni-Natan and Goldstein’s STAR Protocol(1). Following termination by cervical dislocation and femoral vessel cut […]

M. tuberculosis H37Rv [2] = experiment: Acute M. tuberculosis infection efficacy model in 8HUM (lung CFU); format: in vivo, Mycobacterium tuberculosis; details: 8HUM, efavirenz co-administration
M. tuberculosis H37Rv [3] = experiment: Acute M. tuberculosis infection efficacy model in WT mice (lung CFU); format: in vivo, Mycobacterium tuberculosis; details: efavirenz co-administration
[4] = human, in vivo; cited from earlier work
in vivo [5] = details: female, C57BL/6J, mouse
in vivo [6] = details: female, 8HUM, mouse
[7] = mouse, microsomes
[8] = human, 30 min, 5 µM, pH 7.4
[9] = mouse, in vivo
M. tuberculosis = details: cited from earlier work
[10] = mouse, hepatocytes
in vivo [11] = details: female, 8HUM, mouse, po
in vivo [12] = details: female, mouse, po
[13] = hepatocytes
[14] = mouse, microsomes; remark: listed apart in the source
[15] = mouse, hepatocytes; remark: listed apart in the source

O=C1Nc2ccc(Cl)cc2[C@@](C#CC2CC2)(C(F)(F)F)O1 [Efavirenz]
CLint, Human [1]: 0.5 mL/min/g liver | CYP interaction: Inducer (CYP): 3A4 | CYP interaction: Substrate (CYP): 2B6 | induction of hepatic CYP3A4 (CYP3A4): approximately threefold

COc1nc2ccc(Br)cc2cc1[C@@H](c1ccccc1)[C@@](O)(CCN(C)C)c1cccc2ccccc12 [Bedaquiline]
CYP interaction: Substrate (CYP): 3A4 | impact of efavirenz on efficacy of bedaquiline (M. tuberculosis H37Rv [2]): no impact | decrease in efficacy of bedaquiline with efavirenz (M. tuberculosis H37Rv [3]): 1.3 log CFU | terminal half-life [4]: 5.5 mo | AUC(0-t) (in vivo [5]): 2930 ng·h/mL | AUC(0-t) (in vivo [6]): 19100 ng·h/mL

Cc1c(O)cccc1C(=O)N[C@@H](CSc1ccccc1)[C@H](O)CN1C[C@H]2CCCC[C@H]2C[C@H]1C(=O)NC(C)(C)C [Nelfinavir]
CLint, Human [1]: 50 mL/min/g liver | CLint, WT [7]: 50 mL/min/g liver | CYP interaction: Inhibitor (CYP): 3A4 | metabolites detected [8]: 18

CNCC[C@@](O)(c1cccc2ccccc12)[C@H](c1ccccc1)c1cc2cc(Br)ccc2nc1OC [NDM-bedaquiline, N-desmethyl bedaquiline]
impact of efavirenz on PK [9]: little impact | potency of metabolite relative to parent compound (M. tuberculosis): approximately fivefold less potent

CO[C@H]1/C=C/O[C@@]2(C)Oc3c(C)c(O)c4c(c3C2=O)C2=NC3(CCN(CC(C)C)CC3)NC2=C(NC(=O)/C(C)=C\C=C\[C@H](C)[C@H](O)[C@@H](C)[C@@H](O)[C@@H](C)[C@H](OC(C)=O)[C@@H]1C)C4=O [Rifabutin]
CLint, WT [10]: 0.5 mL/min/g liver | CL/F (in vivo [11]): 4.03 mL/min/kg | CLint, Human [1]: 1.1 mL/min/g liver | CL/F (in vivo [12]): 24.8 mL/min/kg | CYP interaction: Substrate (CYP): 3A4 | CLint, Human [13]: 1 mL/min/g liver | CLint, CypC4KO [14]: 0.5 mL/min/g liver | CLint, 8HUM [15]: 0.7 mL/min/g liver
